Experimental data taken from article PMC12668308, “A Novel Antimalarial Agent that Inhibits Protein Synthesis in Plasmodium falciparum” (Angewandte Chemie (International Ed. in English), 2025).
Where two headings read alike, the source gives them in different places.

Legend:
[1] = system: 3D7^Cas9 pfmdr1 G182S; format: cell-based, Plasmodium falciparum; conditions: 3D7^Cas9 pfmdr1 G182S vs 3D7^WT
Procedure: (§1) ^[a] 72-h [^3H] hypoxanthhine incorporation assay; Data is expressed as mean±s.d.. The assay was performed in three independent biological experiments, each in biological duplicates.
(§2) P. falciparum asexual blood stage parasites were cultured in human red blood cells (RBC, Blutspende SRK, Zurich) at a hematocrit of 5% in RPMI 1640 medium. The RPMI 1640 medium (ThermoFisher Scientific #51800−043) was supplemented with the following: 24 mM NaHCO3 (pH 7.3, Sigma-Aldrich #31437−500G-R), 25 mM Hepes (Sigma-Aldrich #H4034−500G), 0.36 mM hypoxanthine (Sigma-Aldrich # H9377−25G), 100 µg mL^-1 neomycin (Sigma-Aldrich #N6386−100G) and 0.5% Albumax II (Thermo Fisher #11021−045). Additionally, 2 mM choline chloride (279 mg/L, Sigma-Aldrich #C7527−100G) was added to the culture to block the induction of sexual commitment as described. ^[31^] The RPMI 1640 medium and components were dissolved in water (Milli-Q purified), stirred for at least 3 h, and then sterile filtered (0.22 μm pore size) with a bottle top filter (Corning # 431118). Parasite cultures were maintained in an atmosphere of 3% O2, 4% CO2, and 93% N2 in air-tight chambers at 37 °C. The [^3H]-hypoxanthine incorporation assay was used to test compound activity in the specific parasite lines as described.^[32^] Briefly, compounds were dissolved in DMSO (10 mM) and diluted in a hypoxanthine-free culture medium. A limiting dilution was performed over a 64-fold range (6-step twofold dilution) in a 96-well plate in duplicates. For every starting concentration, a limiting dilution was performed over a 64-fold range (6-step twofold dilution) in a 96-well plate in two biological duplicates. Parasites were added at 100 µL to each well containing the compound to obtain a final parasitemia of 0.3% and haematocrit of 1.25%. The plates were incubated for 48 h before 0.25 µCi of [^3H]-hypoxanthine was added per well for an additional 24 h. Parasites were harvested on a glass-fiber filter with a Microbeta FilterMate cell harvester (Perkin Elmer, Waltham, USA) and radioactivity was counted using a MicroBeta2 liquid scintillation counter (Perkin Elmer, Waltham, US). The results were recorded, processed by subtraction of the mean background signal obtained from the uninfected RBC controls and expressed as percentage of untreated controls. The fifty percent inhibitory concentration (IC50) was calculated by using nonlinear, four parameter (variable slope) curve fitting as described ^[33^] after importing into GraphPad Prism (version 8.3.0).
The P. falciparum 3D7 wild type parasites in the ring stage were transfected as described.^[20] Infected RBCs collected from a 5 ml culture of synchronous ring stage parasites (5-6% parasitemia at ) were added to 250 µl of packed RBCs and were co-transfected with 50µg of Cas9 and 50 µg of donor plasmids using a Bio-Rad Gene Pulser Xcell Electroporation System (single exponential pulse, 310 V, 250 µF). 24 hours post-transfection, 5 nM WR99210 (MedChemExpress #HY-116387) was added to the culture medium for six days to select for gene-edited parasites, and henceforth parasites were maintained in normal culture medium until a stably propagating parasite population was obtained. After ~4 weeks post-transfection, stably propagating parasite population were obtained. The transgenic parasite line (3D7^pfmdr1 G182S) was cloned out using an established plaque assays via limiting dilution.^[35^] […]

[2] = system: 3D7^WT; test: [3H]-hypoxanthine incorporation assay; format: cell-based; conditions: Plasmodium falciparum, read-out: 3D7^WT IC50
Procedure: as §1, §2

[3] = system: Dd2b2^WT; test: [3H]-hypoxanthine incorporation assay; format: cell-based, Plasmodium falciparum; conditions: Plasmodium falciparum, 72 h, read-out: Parent (Dd2b2^WT) IC50
Procedure: as §2, with “The results were recorded, processed by subtraction of the mean background signal obtained from the uninfected RBC controls and expressed as percentage of untreated controls.” left out
31 was used for resistance selection studies using the strain Dd2b2 (kindly provided by David Fidock). Resistance selection was done as described in ^[34^]. As summarized in Table S3, an initial inoculum of 2 x 10^9 asexual blood stage parasites (at 2-2.5% parasitemia) were cultured in three independent flasks. […] Cloning via limiting dilution was performed to obtain resistant clones for further characterization as described in section 2.2.5.

[4] = system: Dd2b2^pfmdr1 K1065N; format: cell-based, Plasmodium falciparum; conditions: Dd2b2^pfmdr1 K1065N vs Dd2b2^WT
Procedure: (§3) ^[a] 72-h [^3H] hypoxanthhine incorporation assay; Data is expressed as mean±s.d. The assay was performed in three independent biological experiments, each in biological duplicates
as §2

[5] = system: Dd2b2^pfmdr1 G182S; format: cell-based, Plasmodium falciparum; conditions: Dd2b2^pfmdr1 G182S vs Dd2b2^WT
Procedure: as §3
as §2, with “The results were recorded, processed by subtraction of the mean background signal obtained from the uninfected RBC controls and expressed as percentage of untreated controls.” left out

[6] = system: P. falciparum NF54 strain; test: [3H]-hypoxanthine incorporation assay, asexual blood stage; format: cell-based, Plasmodium falciparum; conditions: Plasmodium falciparum, NF54, asexual blood stage; mean ± s.d.; read-out: PfNF54 IC50 ± s.d.
Procedure: as §2, with “The results were recorded, processed by subtraction of the mean background signal obtained from the uninfected RBC controls and expressed as percentage of untreated controls.” left out

[7] = system: HepG2; test: Cytotoxicity assay (MTT); format: cell-based, human; conditions: Homo sapiens, HepG2; 100 µM, 48 h, MTT
Procedure: HepG2 (2x10^4 cells per well) were seeded in 96-well flat-bottom culture plates in 100 µL of culture medium (DMEM containing 10% fetal calve serum and 1% penicillin-streptomycin). After 24 hours, the medium was replaced by fresh medium containing test compounds in a final DMSO concentration of 1%. […] Epirubicin and doxorubicin were used as positive controls in serial dilutions starting from 10 µM, and rifampicin was used as a negative control (at 100 µM). Cell viability was determined 48 h after treatment with compounds by adding 0.1 volumes of 3-(4,5-dimethylthiazol-2-yl)-2,5-diphenyltetrazolium bromide (MTT) solution (5 mg/mL sterile PBS) (Sigma, St. Louis, MO) to the wells. After incubating the cells for 30 min at 37 °C (atmosphere containing 5% CO2), medium was removed and MTT crystals were dissolved in 75 µL of a solution containing 10% SDS and 0.5% acetic acid in DMSO. The optical density (OD) of the samples was measured photometrically at 570 nm in a PHERAstar Omega plate reader (BMG labtech, Ortenberg, Germany). Percent viability was calculated by normalizing sample ODs to those of the DMSO controls. Each compound was tested in at least two independent experiments and CC50 values were determined using the nonlinear regression function of GraphPad Prism 10 (GraphPad Software, San Diego, CA, USA).

[8] = Metabolic stability in liver S9 fractions; format: in vitro ADME; conditions: pooled mouse liver S9 fraction; 1 μM compound, 1 mg/mL pooled mouse liver S9, 37 °C; read-out: t1/2 Mouse Liver S9
Procedure: To evaluate phase I and phase II metabolic stability, the compound (1 μM) was incubated at 37 °C for 240 min with 1 mg/mL pooled mouse liver S9 fraction (Xenotech, Kansas City, USA), 2 mM NADPH, 1 mM UDPGA, 10 mM MgCl2, 5 mM GSH and 0.1 mM PAPS. Metabolic stability of reference compounds: testosterone, verapamil and ketoconazole was determined in parallel to confirm the enzymatic activity of mouse S9 fractions. At defined time points, the incubation was stopped by precipitation of aliquots of S9 enzymes with 2 volumes of cold acetonitrile containing internal standard (150 nM diphenhydramine or 15 nM for Altis Plus measurements). Samples were kept on ice until the end of the incubation, after which precipitated protein was removed by centrifugation (15 min, 4 °C, 4,000 g).

Compound: OC(c1cc(C(F)(F)F)nc2c(C(F)(F)F)cccc12)C1CCCCN1 (stereo not shown) [Mefloquine, mefloquine, reference compound]
- IC50 fold shift relative to 3D7^WT strain [1]: 1.3
- IC50 ([2]; 3D7, 72-h assay, mean±s.d.): 1.4 ± 0.5 nM
- IC50 [3]: 1.1 ± 0.2 nM
- IC50 fold shift relative to parental clone [4]: 0.8
- IC50 fold shift relative to parental clone [5]: 0.3

Compound: CCN(CC)Cc1ccc(O)c(NC(=O)c2cccc(Oc3cc(C(F)(F)F)ccn3)c2)c1 [Compound 27, N-(5-((diEthylamino)methyl)-2-hydroxyphenyl)-3-((4-(trifluoromethyl)pyridin-2-yl)oxy)benzamide]
- IC50 fold shift relative to 3D7^WT strain [1]: 1.5
- IC50 ([2]; 3D7, 72-h assay, mean±s.d.): 2.2 ± 0.2 nM
- IC50 [6]: 11 ± 3.4 nM
- IC50 [3]: 3.5 ± 0.7 nM
- IC50 fold shift relative to parental clone [4]: 9.4
- IC50 fold shift relative to parental clone [5]: 10.6

Compound: O=C(Nc1cc(CN2CCOCC2)cc(Cl)c1O)c1cccc(Oc2cc(C(F)(F)F)ccn2)c1 [Compound 33, N-(3-Chloro-2-hydroxy-5-(morpholinomethyl)phenyl)-3-((4-(trifluoromethyl)pyridin-2-yl)oxy)benzamide]
- IC50 [6]: 63 ± 7.4 nM
- inhibition at 100 µM [7]: 66 ± 2%
- half-life at 1 µM [8]: 49.9 ± 4 min

Compound: O=C(Nc1cc(CN2CCOCC2)ccc1O)c1cccc(Oc2cc(C(F)(F)F)ccn2)c1 [Compound 30, N-(2-Hydroxy-5-(morpholinomethyl)phenyl)-3-((4-(trifluoromethyl)pyridin-2-yl)oxy)benzamide]
- IC50 ([2]; 3D7, 72-h assay, mean±s.d.): 2.6 ± 0.5 nM
- IC50 [6]: 10 ± 1.8 nM
- IC50 [3]: 5.2 ± 0.3 nM
- IC50 fold shift relative to parental clone [4]: 11.8
- inhibition at 100 µM [7]: 45 ± 21%
- half-life at 1 µM [8]: 28.1 ± 5.5 min

Compound: CCN(CC)Cc1cc(Nc2ccnc3cc(Cl)ccc23)ccc1O [Amodiaquine, amodiaquine, reference compound]
- IC50 fold shift relative to 3D7^WT strain [1]: 1.2
- IC50 ([2]; 3D7, 72-h assay, mean±s.d.): 0.8 ± 0.2 nM
- IC50 [3]: 0.8 ± 0.2 nM
- IC50 fold shift relative to parental clone [4]: 1.2
- IC50 fold shift relative to parental clone [5]: 1.1

Compound: O=C(Nc1cc(CN2CCOCC2)cc(F)c1O)c1cccc(Oc2cc(C(F)(F)F)ccn2)c1 [Compound 32, N-(3-Fluoro-2-hydroxy-5-(morpholinomethyl)phenyl)-3-((4-(trifluoromethyl)pyridin-2-yl)oxy)benzamide]
- IC50 [6]: 21.6 ± 2.65 nM
- inhibition at 100 µM [7]: 51 ± 1%
- half-life at 1 µM [8]: 18.4 ± 4.2 min

Compound: CC(C)(C)c1ccc(O)c(NC(=O)c2cccc(Oc3cc(C(F)(F)F)ccn3)c2)c1 [Compound 24, N-(5-(tert-Butyl)-2-hydroxyphenyl)-3-((4-(trifluoromethyl)pyridin-2-yl)oxy)benzamide]
- IC50 [6]: 17 ± 3 nM
- half-life at 1 µM [8]: 5.4 ± 0.5 min

Compound: CCCCN(CCCC)CC(O)c1cc(Cl)cc2c1-c1ccc(Cl)cc1/C2=C/c1ccc(Cl)cc1 (stereo not shown) [Lumefantrine, lumefantrine, reference compound]
- IC50 fold shift relative to 3D7^WT strain [1]: 0.8
- IC50 ([2]; 3D7, 72-h assay, mean±s.d.): 1.6 ± 0.8 nM
- IC50 [3]: 1.6 ± 0.8 nM
- IC50 fold shift relative to parental clone [4]: 0.8
- IC50 fold shift relative to parental clone [5]: 0.4

Compound: CCN(CC)CCCC(C)Nc1ccnc2cc(Cl)ccc12 (stereo not shown) [Chloroquine, chloroquine, reference compound]
- IC50 ([2]; 3D7, 72 h): 1.9 ± 0.1 nM
- IC50 [3]: 22.3 ± 1.3 nM
